Laboratory results published in US9855265B2, “Methods for treating cancer with TrkA receptor tyrosine kinase antagonists” (VM Oncology LLC, priority 2014, dated 2018).

Key:
[1] = tested on: PANC-1 subcutaneous human pancreatic cancer xenografts; assay: PANC-1 Subcutaneous Human Pancreatic Cancer Xenograft Mouse Model
Protocol: Temperature: 22±3° C. Humidity: 50±20%. Light cycle: 12 hours light and 12 hours dark. Cages: Polycarbonate cages of 300 mm×180 mm×150 mm embedded with the soft wood material were used. The bedding was changed twice a week. Diet: Animals had free access to a certified commercial laboratory diet. Concentrations of contaminants in the diet are routinely analyzed by the manufacturers to ensure the contaminants are below their allowable maximum and thus would not affect the tumor growth.
Water: Animals had free access to sterile drinking water. Cage identification: The identification labels for each cage contained the following information: number of animals, sex, strain, date received, treatment, group number and the starting date of the treatment. Briefly, PANC-1 cell line was originally purchased from the ATCC (CRL-1469) and the PANC-1 primary cell line was derived from the PANC-1 subcutaneously xenograft tumors. The PANC-1 primary cells were maintained in vitro as monolayer culture in DMEM medium supplemented with 10% heat inactivated fetal bovine serum, 100 U/ml penicillin and 100 μg/ml streptomycin and L-glutamine (2 mM) at 37° C. in an atmosphere of 5% CO2 air. The cells growing in exponential phase were harvested and counted for tumor inoculation.
Tumor Cell Inoculation and Randomization. Each animal was inoculated subcutaneously on the right flank with the PANC-1 primary tumor cells (5×10^6/animal) in 0.1 mL of PBS. Tumor development was allowed undisrupted until mean tumor volume reached approximately 85 mm^3. Animals were then randomized into 6 groups, with each group consisting of 8 animals. The test articles were administered to the tumor-bearing animals according to predetermined regimens. […] At the time of routine monitoring, the animals were checked for any effects of tumor growth on normal behavior such as mobility, food and water consumption (by looking only), body weight (BW) gain/loss (BW was measured twice weekly), eye/hair matting and any other abnormal effect. Death and observed clinical signs were recorded on the basis of the numbers of animals within each subset.
Tumor Measurement and the Endpoints: The major endpoint was to evaluate if the tumor growth could be inhibited. Tumor measurement was conducted twice weekly with a caliper and the tumor volume (mm3) is estimated using the formula: TV=a×b^2/2, where a and b are long and short diameters of a tumor, respectively. The tumor sizes were then used for T/C value and TGI (tumor growth inhibition), which are indicators of anti-tumor effectiveness. The T/C value (in percent) is an indication of antitumor effect. T and C are the mean volumes of the treated and control groups, respectively, on a given day. BW change, expressed as %, is calculated using the following formula: BW change (%)=(BW_DayX/BW_Day0)×100, where BW_DayX is BW on a given day, and BW_Day0 was BW on Day 0 (tumor inoculation).
Tumor Sample Collection: Two tumor samples from Group 1, 2 and 3, respectively; six tumor samples from Group 4; five tumor samples from Group 5 and 6, respectively, were snap frozen in liquid nitrogen and kept at −80° C. Total 22 tumor samples were collected.
Statistical Analyses: A one-way ANOVA was performed to compare tumor volumes among groups. All data were analyzed using the SPSS 17.0 software; p<0.05 was considered statistically significant.

[2] = tested on: CCI rats, mechanical allodynia; conditions: single oral dose
Protocol: Chronic Constriction Injury (CCI) Model of Neuropathic Pain in Rats. […] Chronic constriction injury of the sciatic nerve was produced by tying four loose ligatures around the left sciatic nerve according to the method of Bennett and Xie. […] Calibrated von Frey filaments were used to determine the lowest mechanical (tactile) threshold required to evoke a brisk paw withdrawal reflex in the rat hindpaws. Rats were allowed to acclimatize in wire mesh cages for 15-20 min prior to von Frey testing. Assessment of paw withdrawal thresholds (PWTs) using von Frey filaments was undertaken prior to CCI-surgery (pre-surgery baseline on day 0). Before the drug dosing on day 14, the pre-dose baseline was recorded for each rat. […] Drug-naïve CCI-rats (n=4-6 per group) were used. The oral vehicle was 0.5% CMC-Na/0.1% Tween 80 in distilled water. The positive control gabapentin was dissolved in the vehicle and orally given at 100 mg/kg (by oral gavage). Test compound was suspended in the vehicle and orally given at 50 mg/kg and 100 mg/kg.

[3] = tested on: carrageenan-induced pain in rats; assay: Carrageenan Pain Model; type: in vivo, Sprague-Dawley rats; conditions: carrageenan rat model, 30 mg/kg, p.o.
Protocol: Carrageenan Pain Model The carrageenan model is a fast, reliable model used to assess the ability of analgesics to block inflammatory pain. The analgesic effects of test article combinations on pain generation are assayed using the carrageenan-induced pain model in rats. Adult male Sprague-Dawley rats are administered study drugs orally (vehicle, compounds of present disclosure) once daily for 2 days (day −2 and day −1) and 30 minutes prior to the carrageenan injection on day 0 (time=0). For the carrageenan injection, animals are lightly anesthetized and 0.1 ml of 2% carrageenan is injected into the plantar surface of the right hind paw. The positive control indomethacin (30 mg/kg, p.o.) is administered orally immediately before the carrageenan injection. Paw volumes (right and left) are measured using a Plethysmometer before drug administration on day −2 and serve as a baseline measurement. The paw volumes are measured again two hours post carrageenan injection. The degree of mechanical allodynia is measured by a blinded observer using Von Frey filaments applied to the plantar surface of the hind paws in an increasing numerical order. Each filament increases the force applied on the paw. The filaments are applied until animal paw withdrawal is achieved. […] Results are expressed as mean change from baseline across five timepoints post carrageenan injection.

Nc1ccn([C@@H]2O[C@H](CO)[C@@H](O)C2(F)F)c(=O)n1 [Gemcitabine, gemcitabine]
TGI (%, D18) ([1]; gemcitabine 10 mg/kg (alone or with Compound-12, see label)): 3% | TGI (%, D18) ([1]; gemcitabine 20 mg/kg (alone or with Compound-12, see label)): 48% | Tumor volume (Mean ± SEM) ([1]; Day 7, gemcitabine 10 mg/kg (alone or with Compound-12, see label)): 83 ± 4 mm^3 | Tumor volume (Mean ± SEM) ([1]; Day 7, gemcitabine 20 mg/kg (alone or with Compound-12, see label)): 83 ± 3 mm^3 | Tumor volume (Mean ± SEM) ([1]; Day 11, gemcitabine 10 mg/kg (alone or with Compound-12, see label)): 142 ± 12 mm^3 | Tumor volume (Mean ± SEM) ([1]; Day 11, gemcitabine 20 mg/kg (alone or with Compound-12, see label)): 109 ± 8 mm^3 | Tumor volume (Mean ± SEM) ([1]; Day 14, gemcitabine 20 mg/kg (alone or with Compound-12, see label)): 138 ± 9 mm^3 | Tumor volume (Mean ± SEM) ([1]; Day 18, gemcitabine 10 mg/kg (alone or with Compound-12, see label)): 346 ± 21 mm^3 | Tumor volume (Mean ± SEM) ([1]; Day 19, gemcitabine 10 mg/kg (alone or with Compound-12, see label)): 374 ± 19 mm^3 | Tumor volume (Mean ± SEM) ([1]; Day 19, gemcitabine 20 mg/kg (alone or with Compound-12, see label)): 216 ± 18 mm^3

NCC1(CC(=O)O)CCCCC1 [gabapentin, reference compound]
side effects observed in dosed CCI-rats [2]: drowsiness or motor incoordination

COc1ccc2c(c1)c(CC(=O)O)c(C)n2C(=O)c1ccc(Cl)cc1 [indomethacin, reference compound]
analgesic effect [3]: about 100%
